Assay results from publication PMC11249646, “Small-Molecule Disruptors of the Interaction between Calcium- and Integrin-Binding Protein 1 and Integrin αIIbβ3 as Novel Antiplatelet Agents” (ACS Pharmacology & Translational Science, 2024).
Read-outs that look alike come from different tables or passages of the source.

Experiments:
[1] = target: T1, CIB1 and αIIb interaction (CIB1-GST : F-αIIb peptide) (Homo sapiens, UniProt Q99828); test: FP assay, 1536-well qHTS format (primary and confirmatory screen); type: binding; conditions: for CONFIRMATORY SCREEN Curve Class / Curve Class (confirmatory screen): qHTS curve class
T1 construct: made in house; host or cells: BL-21 plus RIL cells (E. coli)
T1 sequence (Q99828 1-191): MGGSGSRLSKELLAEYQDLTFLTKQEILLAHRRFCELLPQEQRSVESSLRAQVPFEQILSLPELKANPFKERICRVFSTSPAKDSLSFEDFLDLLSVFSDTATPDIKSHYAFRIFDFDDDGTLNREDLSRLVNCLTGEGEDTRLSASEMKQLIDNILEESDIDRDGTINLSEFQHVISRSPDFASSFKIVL

[2] = target: T2, GST-CIB1 : F-scrambled peptide (Homo sapiens, UniProt Q99828); test: FP scrambled-peptide counter screen, 1536-well format; type: binding; conditions: for COUNTERSCREEN Curve Class / Curve Class (counterscreen): qHTS curve class; for IC50: read-out: IC50 [μM] (counterscreen)
T2 construct: made in house; host or cells: BL-21 plus RIL cells (E. coli)
T2 sequence (Q99828 1-191): T1 sequence (Q99828 1-191)

[3] = confirmatory screen, negative sign = inhibitory curve
[4] = qHTS FP screen hits, Table S2, negative = inhibition
[5] = qHTS FP screen hits, Table S2, one class per curve where COUNT > 1, negative sign = inhibitory curve
[6] = scrambled-peptide counterscreen
[7] = confirmatory screen, read-out: IC50 [μM] (confirmatory screen)
[8] = qHTS FP screen hits, Table S2, read-out: IC50
[9] = counterscreen, negative sign = inhibitory curve
[10] = Table S3, confirmatory screen, a negative sign marks inhibitory curves
[11] = Table S3, confirmatory screen, negative = inhibition
[12] = qHTS primary screen hits, Table S2, negative = inhibition
[13] = qHTS primary screen hits, Table S2, negative sign = inhibitory curve, several classes where COUNT > 1
[14] = qHTS primary screen hits, Table S2, read-out: IC50
[15] = Table S3, counterscreen, negative = inhibition
[16] = Table S3, counterscreen, a negative sign marks inhibitory curves
[17] = Table S3, confirmatory screen, YES/NO call
[18] = Table S3, confirmatory screen, read-out: IC50 [μM] (confirmatory screen)

| Structure (SMILES) | Curve Class (confirmatory screen) [1, 10] | Efficacy (%) (confirmatory screen) [1, 11] | Efficacy (%) [1, 12] [%] | Curve Class [1, 13] | IC50 [1, 14] [µM] | Efficacy (%) (counterscreen) [2, 15] | IC50 ([2]; Table S3, counterscreen) [µM] | Curve Class (counterscreen) [2, 16] | also measured |
| --- | --- | --- | --- | --- | --- | --- | --- | --- | --- |
| CN(C)C(=S)SSC(=S)N(C)C [NCGC00091563-12] |  |  |  |  |  |  |  |  | IC50 ([1]; IC50 [μM]): 39.8 µM; CONFIRMATORY SCREEN Confirm? ([1]; confirmatory screen, YES/NO call): YES; CONFIRMATORY SCREEN Curve Class [1, 3]: -1.2; CONFIRMATORY SCREEN Efficacy (%) ([1]; confirmatory screen, negative = inhibition): -67%; IC50 ([1]; confirmatory screen, read-out: CONFIRMATORY SCREEN IC50): 7.1 µM; Efficacy (%) [1, 4]: -71%; Curve Class [1, 5]: -2.2; COUNTERSCREEN Efficacy (%) [2, 6]: 14%; COUNTERSCREEN Confirm? ([2]; scrambled-peptide counterscreen, YES/NO call): YES; COUNTERSCREEN Curve Class [2, 6]: 4 |
| O=C(O)C(F)(F)F.c1ccc(-n2ccc(-c3nnc4n3CCCCC4)c2)cc1 [NCGC00249645-01] |  |  |  |  |  |  |  |  | Efficacy (%) (confirmatory screen) ([1]; confirmatory screen): -104%; Confirm? (confirmatory screen) ([1]; confirmatory screen, YES/NO): YES; Curve Class (confirmatory screen) [1, 3]: -2.1; IC50 [1, 7]: 50.1 µM; Efficacy (%) [1, 4]: -91%; Curve Class [1, 5]: -2.2; IC50 [1, 8]: 79.4 µM; Efficacy (%) (counterscreen) ([2]; counterscreen): -62%; Curve Class (counterscreen) [2, 9]: -3; IC50 ([2]; counterscreen): 89.1 µM |
| Cc1ccc([N+](=O)[O-])[c]2c1[O][Hg]2 [NCGC00249897-01] | 4 | 0 | -49 | -1.4 | 3.5 | 111 |  |  |  |
| O=C([O-])c1c(Cl)c(Cl)c(Cl)c(Cl)c1-c1c2cc(I)c(=O)c(I)c-2oc2c(I)c(O)c(I)cc12.[Na+] [NCGC00159508-05] |  | 261 | -26 | -2.4 | 13.6 | 311 | 44.7 |  |  |
| COc1ccc2c(=O)n3nc(Nc4cccc(N5CCN(C)CC5)c4)sc3nc2c1.Cl [NCGC00187813-01] |  |  | -22 | -1.4 | 17.8 |  |  |  | CONFIRMATORY SCREEN Efficacy (%) ([1]; confirmatory screen): -43%; CONFIRMATORY SCREEN Curve Class ([1]; confirmatory screen): 4; COUNTERSCREEN Efficacy (%) ([2]; counterscreen): -16%; COUNTERSCREEN Curve Class ([2]; counterscreen): 4 |
| CSc1cc2c(s1)c1cnn(Cc3cccc(N)c3)c(=O)c1n2C.O=C(O)C(F)(F)F [NCGC00188341-01] |  |  | -65 | -1.2 | 20 |  |  |  | Efficacy (%) (confirmatory screen) ([1]; confirmatory screen): -133%; Confirm? (confirmatory screen) ([1]; confirmatory screen, YES/NO): YES; Curve Class (confirmatory screen) [1, 3]: -2.1; IC50 [1, 7]: 39.8 µM; Efficacy (%) (counterscreen) ([2]; counterscreen): 0%; Confirm? (counterscreen) ([2]; counterscreen, YES/NO): YES; Curve Class (counterscreen) [2, 9]: 4 |
| O=C(Nc1nc(-c2ccccc2)cs1)c1ccccc1NS(=O)(=O)c1ccc(F)cc1.O=C(O)C(F)(F)F [NCGC00247844-02] | 3 | 48 | -24 | -1.4 | 17.8 | 102 | 50.1 |  |  |
| CCCCCCCCCCCCCCCC[N+](C)(C)CCN(Cc1ccc(OC)cc1)c1ncccn1.[Br-] [NCGC00016507-05] | 4 | -36 | -71 |  | 79.4 | 100 | 89.1 | 3 | Curve Class ([1]; qHTS primary screen hits, Table S2, negative sign = inhibitory curve): -2.2 |
| COc1ccc2[nH]c([S+]([O-])Cc3ncc(C)c(OC)c3C)nc2n1 (centres unmarked) [NCGC00386399-04] | -1.2 | -44 |  |  |  | -72 | 44.7 | -2.2 | Confirm? (confirmatory screen) [1, 17]: YES; IC50 [1, 18]: 25.1 µM |
| Cn1cnc(-c2nccc3c(O)nc(OCCCC(F)(F)F)nc23)c1.O=C(O)C(F)(F)F [NCGC00381768-02] | 4 | -16 | -25 | -2.4 | 31.6 | -28 |  | 4 |  |
| CCOc1ccc(CCNC(C)=O)cc1OCC.O=C(O)C(F)(F)F [NCGC00241413-01] |  |  |  |  |  |  |  |  | CONFIRMATORY SCREEN Efficacy (%) ([1]; confirmatory screen): -11%; CONFIRMATORY SCREEN Curve Class ([1]; confirmatory screen): 4; Efficacy (%) [1, 4]: -45%; Curve Class [1, 5]: -2.2; IC50 [1, 8]: 39.8 µM; COUNTERSCREEN Efficacy (%) ([2]; counterscreen): 0%; COUNTERSCREEN Curve Class ([2]; counterscreen): 4 |
| CO[C@@H]1C(N(C)C(=O)c2ccccc2)C[C@H]2O[C@]1(C)n1c3ccccc3c3c4c(c5c6ccccc6n2c5c31)C(=O)NC4=O (some centres unmarked) [NCGC00345083-01] | -1.2 | -78 | -67 | -2.2 | 19.2 | -150 | 22.4 | -1.1 | Confirm? (confirmatory screen) [1, 17]: YES; IC50 [1, 18]: 14.1 µM |
| CN(CC(=O)Nc1ccc(N2CCOCC2)cc1)Cc1c(O)ccc2ccccc12.O=C(O)C(F)(F)F [NCGC00229682-01] | 4 | -47 | -68 | -2.2 | 39.8 | -57 | 70.8 | -2.2 | Confirm? (counterscreen) ([2]; Table S3, counterscreen, YES/NO call): YES |
| CN(C)c1ccc(NC(=S)N/N=C2\C(=O)Nc3ccccc32)cc1.O=C(O)C(F)(F)F [NCGC00229526-01] |  |  | -38 | -1.2 | 3.5 |  |  |  | Efficacy (%) (confirmatory screen) ([1]; confirmatory screen): -73%; Confirm? (confirmatory screen) ([1]; confirmatory screen, YES/NO): YES; Curve Class (confirmatory screen) [1, 3]: -1.4; IC50 [1, 7]: 10 µM; Efficacy (%) (counterscreen) ([2]; counterscreen): -44%; Curve Class (counterscreen) [2, 9]: -1.2; IC50 ([2]; counterscreen): 22.4 µM |
| CCOC(=O)CC(SP(=S)(OC)OC)C(=O)OCC (centres unmarked) [NCGC00091902-08] |  |  |  |  |  |  |  |  | Efficacy (%) (confirmatory screen) ([1]; confirmatory screen): -93%; Confirm? (confirmatory screen) ([1]; confirmatory screen, YES/NO): YES; Curve Class (confirmatory screen) [1, 3]: -2.2; IC50 [1, 7]: 100 µM; Efficacy (%) [1, 4]: -52%; Curve Class [1, 5]: -2.2; IC50 [1, 8]: 119 µM; Efficacy (%) (counterscreen) ([2]; counterscreen): -27%; Confirm? (counterscreen) ([2]; counterscreen, YES/NO): YES; Curve Class (counterscreen) [2, 9]: -1.4; IC50 ([2]; counterscreen): 20 µM |
| O=C(O)C(F)(F)F.Oc1cccc2c(-c3nnn[nH]3)ccnc12 [NCGC00183786-01] |  |  | -27 | -1.2 | 3.5 |  |  |  | Efficacy (%) (confirmatory screen) ([1]; confirmatory screen): -29%; Confirm? (confirmatory screen) ([1]; confirmatory screen, YES/NO): YES; Curve Class (confirmatory screen) [1, 3]: -1.4; IC50 [1, 7]: 25.1 µM; Efficacy (%) (counterscreen) ([2]; counterscreen): -23%; Confirm? (counterscreen) ([2]; counterscreen, YES/NO): YES; Curve Class (counterscreen) [2, 9]: 4 |
| O=C(Cc1ccccc1)NC(c1ccco1)c1cc(Cl)c2cccnc2c1O.O=C(O)C(F)(F)F (centres unmarked) [NCGC00188377-01] | 4 | -25 | -35 | -2.2 | 39.8 | 61 | 89.1 | 3 |  |
